# Values quoted from earlier work as cited in patent US9446050B2, “Method for treatment of mesothelioma” (THE BRIGHAM AND WOMEN'S HOSPITAL, INC., priority 2011, dated 2016).
# Assays:
# mesothelioma [1] = details: single agent
# mesothelioma [2] = details: large-dose single treatment in combination with leucovin
Compound,median overall survival (mesothelioma [1]),response rate (mesothelioma [1]),efficacy rate (mesothelioma [2])
Nc1nc2[nH]cc(CCc3ccc(C(=O)N[C@@H](CCC(=O)O)C(=O)O)cc3)c2c(=O)[nH]1 [pemetrexed],10.7 months,14.1%,–
CN(Cc1cnc2nc(N)nc(N)c2n1)c1ccc(C(=O)N[C@@H](CCC(=O)O)C(=O)O)cc1 [methotrexate],–,–,37%
